Columns and labels:
Design in all cases: species or system mixed lysate of K562, MV4-11, THP-1, NCI-H1155
[1] = target: Activin receptor type-1B ; ACVR1B ; P36896 (Homo sapiens, UniProt P36896); settings: DIA-MS residual binding; binder
[2] = target: Casein kinase I isoform gamma-2 ; CSNK1G2 ; P78368 (Homo sapiens, UniProt P78368); settings: DIA-MS residual binding; binder
[3] = target: T1, Discoidin domain-containing receptor 2 ; DDR2 ; Q16832 (Homo sapiens, UniProt Q16832); settings: binder
T1 sequence (Q16832 1-855): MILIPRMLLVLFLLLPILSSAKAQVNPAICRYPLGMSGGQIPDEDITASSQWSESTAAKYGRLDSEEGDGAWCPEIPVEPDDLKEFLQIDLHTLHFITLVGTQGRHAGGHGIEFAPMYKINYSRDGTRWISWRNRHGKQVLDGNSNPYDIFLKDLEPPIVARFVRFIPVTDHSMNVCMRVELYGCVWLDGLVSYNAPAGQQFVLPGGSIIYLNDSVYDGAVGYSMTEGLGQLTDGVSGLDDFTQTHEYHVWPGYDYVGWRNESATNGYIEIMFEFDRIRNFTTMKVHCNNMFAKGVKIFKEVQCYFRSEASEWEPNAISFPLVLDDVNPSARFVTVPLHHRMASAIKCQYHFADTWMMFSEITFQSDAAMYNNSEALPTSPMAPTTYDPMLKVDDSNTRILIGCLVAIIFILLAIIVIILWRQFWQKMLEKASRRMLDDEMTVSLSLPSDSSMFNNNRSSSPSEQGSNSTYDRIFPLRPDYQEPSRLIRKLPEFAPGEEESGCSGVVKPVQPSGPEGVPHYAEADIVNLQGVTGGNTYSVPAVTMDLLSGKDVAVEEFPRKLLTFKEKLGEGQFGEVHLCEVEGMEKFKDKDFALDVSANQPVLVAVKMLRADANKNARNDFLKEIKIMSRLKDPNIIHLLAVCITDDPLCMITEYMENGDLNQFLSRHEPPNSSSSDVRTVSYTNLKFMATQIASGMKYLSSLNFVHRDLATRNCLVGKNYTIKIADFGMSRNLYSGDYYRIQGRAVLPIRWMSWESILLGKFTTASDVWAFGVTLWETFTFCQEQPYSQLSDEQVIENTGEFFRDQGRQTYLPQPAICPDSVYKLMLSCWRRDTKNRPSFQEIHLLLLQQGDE

[4] = target: Ephrin type-A receptor 1 ; EPHA1 ; P21709 (Homo sapiens, UniProt P21709); settings: DIA-MS residual binding; binder
[5] = target: Epithelial discoidin domain-containing receptor 1 ; DDR1 ; Q08345 (Homo sapiens, UniProt Q08345); settings: binder
Sequence of Epithelial discoidin domain-containing receptor 1 ; DDR1 ; Q08345 (Q08345 whole entry, the tested form may be a part, canonical isoform): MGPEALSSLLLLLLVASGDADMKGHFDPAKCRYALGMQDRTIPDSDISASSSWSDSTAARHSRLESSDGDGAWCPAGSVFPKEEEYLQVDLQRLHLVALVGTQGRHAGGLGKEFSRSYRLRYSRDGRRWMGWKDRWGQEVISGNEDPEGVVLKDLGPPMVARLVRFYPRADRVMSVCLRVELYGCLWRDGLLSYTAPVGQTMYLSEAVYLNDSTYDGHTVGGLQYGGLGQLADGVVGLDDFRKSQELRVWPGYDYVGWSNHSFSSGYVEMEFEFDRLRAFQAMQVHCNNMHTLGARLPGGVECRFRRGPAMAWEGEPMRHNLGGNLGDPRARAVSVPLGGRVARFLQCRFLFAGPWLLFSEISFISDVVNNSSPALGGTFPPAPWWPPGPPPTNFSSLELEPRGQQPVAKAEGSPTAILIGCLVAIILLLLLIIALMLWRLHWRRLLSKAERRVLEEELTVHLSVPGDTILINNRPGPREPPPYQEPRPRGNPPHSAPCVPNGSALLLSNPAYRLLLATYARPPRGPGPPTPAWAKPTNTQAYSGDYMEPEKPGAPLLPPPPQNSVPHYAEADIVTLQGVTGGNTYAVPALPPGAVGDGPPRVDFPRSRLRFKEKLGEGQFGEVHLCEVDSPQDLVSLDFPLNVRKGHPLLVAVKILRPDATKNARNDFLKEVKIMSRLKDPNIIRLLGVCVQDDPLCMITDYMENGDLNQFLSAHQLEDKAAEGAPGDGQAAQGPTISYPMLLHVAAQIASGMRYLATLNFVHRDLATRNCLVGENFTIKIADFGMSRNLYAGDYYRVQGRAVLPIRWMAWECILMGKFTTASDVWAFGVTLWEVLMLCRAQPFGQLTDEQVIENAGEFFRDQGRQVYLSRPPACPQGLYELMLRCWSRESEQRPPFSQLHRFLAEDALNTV

[6] = target: Isoform 2 of Tyrosine-protein kinase Lyn ; LYN-2 ; P07948-2 (Homo sapiens, UniProt P07948); settings: DIA-MS residual binding; binder
Sequence of Isoform 2 of Tyrosine-protein kinase Lyn ; LYN-2 ; P07948-2 (P07948 whole entry, canonical isoform): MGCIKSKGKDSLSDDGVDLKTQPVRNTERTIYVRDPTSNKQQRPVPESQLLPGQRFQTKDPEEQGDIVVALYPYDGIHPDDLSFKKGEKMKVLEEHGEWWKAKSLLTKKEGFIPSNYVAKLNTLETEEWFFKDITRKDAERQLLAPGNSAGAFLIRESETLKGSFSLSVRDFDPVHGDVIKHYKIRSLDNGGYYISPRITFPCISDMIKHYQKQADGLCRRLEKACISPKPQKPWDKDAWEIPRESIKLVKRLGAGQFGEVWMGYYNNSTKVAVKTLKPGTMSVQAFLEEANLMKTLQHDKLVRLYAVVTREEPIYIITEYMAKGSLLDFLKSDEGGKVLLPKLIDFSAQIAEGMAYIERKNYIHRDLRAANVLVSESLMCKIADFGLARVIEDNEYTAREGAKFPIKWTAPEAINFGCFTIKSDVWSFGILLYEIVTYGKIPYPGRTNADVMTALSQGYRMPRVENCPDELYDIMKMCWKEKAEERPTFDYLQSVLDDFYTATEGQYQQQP

[7] = target: Isoform 4 of Serine/threonine-protein kinase SIK3 ; SIK3-8 ; Q9Y2K2-8 (Homo sapiens, UniProt Q9Y2K2); settings: DIA-MS residual binding; binder
[8] = target: Mitogen-activated protein kinase 14 ; MAPK14-2 ; Q16539-2 (Homo sapiens, UniProt Q16539); settings: DIA-MS residual binding; binder
[9] = target: Mitogen-activated protein kinase kinase kinase kinase 5 ; MAP4K5 ; Q9Y4K4 (Homo sapiens, UniProt Q9Y4K4); settings: DIA-MS residual binding; binder
[10] = target: Proto-oncogene tyrosine-protein kinase receptor Ret ; RET ; P07949 (Homo sapiens, UniProt P07949); settings: binder
Sequence of Proto-oncogene tyrosine-protein kinase receptor Ret ; RET ; P07949 (P07949 whole entry): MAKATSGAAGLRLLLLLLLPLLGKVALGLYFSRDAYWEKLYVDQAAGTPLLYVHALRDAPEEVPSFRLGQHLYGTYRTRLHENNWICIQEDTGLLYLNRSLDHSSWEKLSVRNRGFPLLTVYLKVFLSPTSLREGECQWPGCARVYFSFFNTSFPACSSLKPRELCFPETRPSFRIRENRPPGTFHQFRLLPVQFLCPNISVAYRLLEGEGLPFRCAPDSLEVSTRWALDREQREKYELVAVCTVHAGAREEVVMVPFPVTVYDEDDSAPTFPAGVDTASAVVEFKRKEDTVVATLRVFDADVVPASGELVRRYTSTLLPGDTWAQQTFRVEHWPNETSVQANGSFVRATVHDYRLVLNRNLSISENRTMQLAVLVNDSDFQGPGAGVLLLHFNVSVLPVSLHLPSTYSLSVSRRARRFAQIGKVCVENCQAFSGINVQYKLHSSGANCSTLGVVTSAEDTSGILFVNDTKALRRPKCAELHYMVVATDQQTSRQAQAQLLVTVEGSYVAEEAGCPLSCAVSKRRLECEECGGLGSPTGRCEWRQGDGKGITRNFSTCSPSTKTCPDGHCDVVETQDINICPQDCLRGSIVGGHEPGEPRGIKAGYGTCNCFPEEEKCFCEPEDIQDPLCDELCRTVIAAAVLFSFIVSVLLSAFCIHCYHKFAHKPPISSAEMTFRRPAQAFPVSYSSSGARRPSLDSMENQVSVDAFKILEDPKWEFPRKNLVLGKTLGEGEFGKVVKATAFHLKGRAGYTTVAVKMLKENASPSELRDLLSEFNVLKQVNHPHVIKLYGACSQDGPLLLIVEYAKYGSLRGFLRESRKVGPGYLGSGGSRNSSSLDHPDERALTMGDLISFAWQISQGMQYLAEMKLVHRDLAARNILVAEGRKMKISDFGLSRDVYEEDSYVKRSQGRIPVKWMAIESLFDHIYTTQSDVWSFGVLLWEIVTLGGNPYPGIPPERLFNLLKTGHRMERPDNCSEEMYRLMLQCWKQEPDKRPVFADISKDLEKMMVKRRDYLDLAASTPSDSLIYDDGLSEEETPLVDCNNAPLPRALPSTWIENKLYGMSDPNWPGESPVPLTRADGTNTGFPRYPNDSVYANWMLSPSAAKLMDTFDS

[11] = target: Serine/threonine-protein kinase SIK2 ; SIK2 ; Q9H0K1 (Homo sapiens, UniProt Q9H0K1); settings: DIA-MS residual binding; binder
[12] = target: Tyrosine-protein kinase FRK ; FRK ; P42685 (Homo sapiens, UniProt P42685); settings: DIA-MS residual binding; binder
Sequence of Tyrosine-protein kinase FRK ; FRK ; P42685 (P42685 whole entry): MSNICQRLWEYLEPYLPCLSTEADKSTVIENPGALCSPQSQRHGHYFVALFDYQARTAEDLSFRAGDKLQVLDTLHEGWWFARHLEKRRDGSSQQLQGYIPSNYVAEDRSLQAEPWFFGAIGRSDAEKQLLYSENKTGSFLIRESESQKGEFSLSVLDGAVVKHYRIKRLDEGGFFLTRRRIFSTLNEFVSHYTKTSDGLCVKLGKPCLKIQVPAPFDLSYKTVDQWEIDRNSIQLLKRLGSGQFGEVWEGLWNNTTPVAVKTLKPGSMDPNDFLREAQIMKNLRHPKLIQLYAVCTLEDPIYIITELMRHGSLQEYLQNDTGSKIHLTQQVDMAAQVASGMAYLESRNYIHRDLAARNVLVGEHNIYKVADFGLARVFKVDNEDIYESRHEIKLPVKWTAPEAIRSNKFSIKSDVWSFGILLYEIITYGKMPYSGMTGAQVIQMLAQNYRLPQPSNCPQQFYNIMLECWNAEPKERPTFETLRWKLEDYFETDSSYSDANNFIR

[13] = target: Tyrosine-protein kinase Fgr ; FGR ; P09769 (Homo sapiens, UniProt P09769); settings: binder
[14] = target: Tyrosine-protein kinase Fyn ; FYN ; P06241 (Homo sapiens, UniProt P06241); settings: DIA-MS residual binding; binder
Sequence of Tyrosine-protein kinase Fyn ; FYN ; P06241 (P06241 whole entry): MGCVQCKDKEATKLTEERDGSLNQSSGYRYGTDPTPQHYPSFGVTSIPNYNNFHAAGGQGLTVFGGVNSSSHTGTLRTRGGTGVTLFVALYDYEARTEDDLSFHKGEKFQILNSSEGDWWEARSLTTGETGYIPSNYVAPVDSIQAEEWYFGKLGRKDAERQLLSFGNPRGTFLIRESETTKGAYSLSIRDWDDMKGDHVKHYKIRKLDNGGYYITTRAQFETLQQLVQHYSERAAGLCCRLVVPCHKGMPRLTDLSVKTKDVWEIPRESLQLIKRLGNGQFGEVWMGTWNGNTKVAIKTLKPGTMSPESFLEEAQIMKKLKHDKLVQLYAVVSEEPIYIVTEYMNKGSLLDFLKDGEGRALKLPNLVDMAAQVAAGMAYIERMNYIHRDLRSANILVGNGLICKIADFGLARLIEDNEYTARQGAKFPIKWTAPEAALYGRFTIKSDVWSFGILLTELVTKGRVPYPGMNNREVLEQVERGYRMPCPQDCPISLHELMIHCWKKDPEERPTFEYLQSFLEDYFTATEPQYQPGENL

[15] = target: Tyrosine-protein kinase Lyn ; LYN ; P07948 (Homo sapiens, UniProt P07948); settings: DIA-MS residual binding; binder
Sequence of Tyrosine-protein kinase Lyn ; LYN ; P07948 (P07948 whole entry, one chain of several): as the sequence (P07948 whole entry, canonical isoform) above

Sequence of Casein kinase I isoform gamma-2 ; CSNK1G2 ; P78368 (P78368 whole entry, the tested form may be a part, canonical isoform): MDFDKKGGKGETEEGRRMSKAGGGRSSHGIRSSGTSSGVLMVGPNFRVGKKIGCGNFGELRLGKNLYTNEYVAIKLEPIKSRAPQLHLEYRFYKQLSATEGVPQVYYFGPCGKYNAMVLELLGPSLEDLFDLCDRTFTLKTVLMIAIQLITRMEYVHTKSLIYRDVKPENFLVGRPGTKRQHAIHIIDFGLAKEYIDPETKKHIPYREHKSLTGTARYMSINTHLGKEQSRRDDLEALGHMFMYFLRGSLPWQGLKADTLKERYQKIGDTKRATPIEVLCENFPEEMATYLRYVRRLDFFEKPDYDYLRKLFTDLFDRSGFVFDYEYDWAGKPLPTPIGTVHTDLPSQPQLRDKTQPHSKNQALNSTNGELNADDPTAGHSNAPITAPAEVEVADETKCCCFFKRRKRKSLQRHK
Sequence of Activin receptor type-1B ; ACVR1B ; P36896 (P36896 whole entry, canonical isoform): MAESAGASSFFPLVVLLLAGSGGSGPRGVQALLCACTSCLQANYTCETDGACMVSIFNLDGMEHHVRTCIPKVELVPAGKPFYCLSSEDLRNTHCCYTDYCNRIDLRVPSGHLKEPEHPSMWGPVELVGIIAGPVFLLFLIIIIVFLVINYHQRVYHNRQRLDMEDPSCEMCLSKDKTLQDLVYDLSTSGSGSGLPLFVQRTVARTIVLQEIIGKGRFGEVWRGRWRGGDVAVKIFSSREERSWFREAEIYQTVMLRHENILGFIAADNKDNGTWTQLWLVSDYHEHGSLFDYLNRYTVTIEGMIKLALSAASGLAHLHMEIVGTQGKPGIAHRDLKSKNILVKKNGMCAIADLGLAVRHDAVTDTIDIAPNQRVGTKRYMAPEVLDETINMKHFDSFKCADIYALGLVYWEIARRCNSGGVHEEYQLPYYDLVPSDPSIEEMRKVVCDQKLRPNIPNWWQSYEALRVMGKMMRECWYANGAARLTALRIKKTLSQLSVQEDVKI

- DIA-MS / % Intensity (30 µM/DMSO) [1]: 38.22%
- DIA-MS / % Intensity (30 µM/DMSO) [2]: 45.01%
- DIA-MS / % Intensity (30 µM/DMSO) [3]: 5.824%
- DIA-MS / % Intensity (30 µM/DMSO) [4]: 39.55%
- DIA-MS / % Intensity (30 µM/DMSO) [5]: 2.942%
- DIA-MS / % Intensity (30 µM/DMSO) [6]: 1.98%
- DIA-MS / % Intensity (30 µM/DMSO) [7]: 10.64%
- DIA-MS / % Intensity (30 µM/DMSO) [8]: 35.75%
- DIA-MS / % Intensity (30 µM/DMSO) [9]: 28.36%
- DIA-MS / % Intensity (30 µM/DMSO) [10]: 41.37%
- DIA-MS / % Intensity (30 µM/DMSO) [11]: 2.882%
- DIA-MS / % Intensity (30 µM/DMSO) [12]: 2.249%
- DIA-MS / % Intensity (30 µM/DMSO) [13]: 0.4999%
- DIA-MS / % Intensity (30 µM/DMSO) [14]: 1.145%
- DIA-MS / % Intensity (30 µM/DMSO) [15]: 11.5%
Structure (SMILES): Cc1nc(Nc2ncc(C(=O)Nc3c(C)cccc3Cl)s2)cc(N2CCN(CCO)CC2)n1 [dasatinib]

Reference: publication doi:10.1101/2024.08.13.607785v1 (biorxiv, 2024)
